We go through one compound from US20080139480A1, “Combination Of (A) N--4-(3- Pyridyl)-2-Pyrimidine-Amine And (B) At Least One Hypusination Inhibitor And The UseThereof” (priority 2003, published 2008).

SMILES strings stand for the structures. Entries after “also recorded” stand apart in the source; their conditions may differ.

What all share (format): cell-based
Test [1] deals with Bcr-Abl positive K562 cells. Put plainly: MTT assay, growth inhibition / cellular cytotoxicity. The following applies: 24 h, ciclopirox 0 to 81 μM. How it is done:
(§1) K562 cells were obtained from DSMZ (Bielefeld, Germany). HL-60 lines were kindly provided by Dr. Bühring (Tübingen, Germany). Both cell lines are cultured in RPMI 1640 medium (Gibco-BRL, Invitrogen, UK) containing 10% fetal calf serum (FCS) (Biochrom KG, Berlin, Germany). The cells are incubated at 37° C. in a humidified atmosphere with 5% CO2 in air.
(§2) K652 and HL-60 cells are plated into 96-well flat-bottomed microtiter plates (Becton Dickinson, Heidelberg, Germany) at 1.5×10^4 cells/well in 150 μl of their respective media.
(§3) All analyses are performed in triplicates. After 24 and 48 hours, the viable cells in each well are assayed for their ability to transform 3-(4,5-dimethylthiazol-2-yl)-2,5-diphenyltetrazolium bromide (MTT) into a purple formazan (Twentyman et al., Br. J. Haematol. 71, 19-24 (1989), Arnould et al., Anticancer Res. 10, 145-154 (1990)). Therefore, 10 μl of a 10 mg/ml MTT solution is added in each well. After an incubation period of 2 hours at 37° C., the purple formazan is released by adding lysis buffer (15% sodium dodecyl sulfate [SDS] in DMF/H2O 1:1, pH 4.5) and shaking overnight in the dark. The absorbance of the samples is measured on an enzyme-linked immunosorbent assay (ELISA) plate reader (Dynatech MR7000) at 570 nm. […]
In general terms: Formazan colour is commonly taken as a measure of viable cells.

Test [2] concerns Bcr-Abl-negative HL-60 cells. The test is described as above. The following applies: ciclopirox 0 to 81 μM. The method, then: as §1, §2, §3
The test system of test [3] is Bcr-Abl negative HL-60 cells. As to the kind of experiment: Apoptosis, flow cytometric evaluation of hypodiploid nuclei. The following applies: ciclopirox 0 to 81 μM. The method, then: (§4) K562 and HL-60 (2×10^5 cells per well) are cultured in 24-well tissue plates under the conditions described above.
(§5) Briefly, nuclei are prepared by lysing cells in a hypotonic lysis buffer (1% sodium citrate, 0.1% Trition X-100, 50 μg propidium iodide per ml) and subsequently analyzed by flow cytometry. Nuclei to the left of the 2N peak containing hypodiploid DNA are considered as apoptotic. Flow cytometric analysis are performed on a FACScalibur (Becton Dickinson) using […] analysis software.
(§6) Apoptosis was also measured after 24 h by flow cytometric evaluation of hypodiploid nuclei as described in above Methods.
A general note: A flow cytometer gives signals particle by particle.

In test [4] the test system is Bcr-Abl-positive K562 cells. Described as above. The following applies: ciclopirox 0 to 81 μM. The method, then: as §4, §5, §6

Take `Cc1cc(C2CCCCC2)n(O)c(=O)c1` [ciclopirox, 6-cyclohexyl-1-hydroxy-4-methyl-2(1H)-pyridinone]: in test [1], the “growth inhibition / cell viability, single agent” value is “inhibits cell viability; also recorded: anti-proliferative effect was detected”. Besides, in test [2], the “cell viability, single agent” value is on record as “inhibits cell viability”. The “induction of apoptosis, single agent” value in test [3] and in test [4] was “induces apoptosis” each time.
